This test has as its target human GABA A receptor α5β3γ2 (Homo sapiens (Human), UniProt P18507+P31644). The test can be described thus: [3H]flumazenil competition binding assay, human GABA A α5β3γ2 receptors expressed in HEK293 cells. Particulars: human receptor; displacement of [3H]flumazenil (0.5 nM); means of two determinations; read-out: hKi GABAAa5. In short, it runs like this: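 Competition for [3H]flumazenil binding on membranes of HEK293 cells transiently transfected with human α5β3γ2 receptors, in Krebs-tris buffer pH 7.5.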
With `COC(=O)[C@H](Cc1ccccc1)NC(=O)c1ccc(OCc2c(-c3ccccc3)noc2C)nc1` [Example 229, (S)-2-{[6-(5-Methyl-3-phenyl-isoxazol-4-ylmethoxy)-pyridine-3-carbonyl]-amino}-3-phenyl-propionic acid methyl ester], the Ki came out at 47.7 nM.

For the compound `Cc1onc(-c2ccccc2)c1COc1ccc(C(=O)NC2CC(OCc3ccccc3)C2)cn1` (stereo not drawn) [Example 230, (cis or trans)-N-(3-Benzyloxy-cyclobutyl)-6-(5-methyl-3-phenyl-isoxazol-4-ylmethoxy)-nicotinamide], the Ki came out at 1.2 nM.

Take `Cc1onc(-c2ccccc2)c1COc1ccc(C(=O)N[C@@H](Cc2ccccc2)C(=O)O)cn1` [Example 231, (S)-2-{[6-(5-Methyl-3-phenyl-isoxazol-4-ylmethoxy)-pyridine-3-carbonyl]-amino}-3-phenyl-propionic acid]: the Ki was 28 nM.

As for `Cc1onc(-c2ccccc2)c1COc1ccc(C(=O)NC2(C)COC2)cn1` [Example 232, N-(3-Methyl-oxetan-3-yl)-6-(5-methyl-3-phenyl-isoxazol-4-ylmethoxy)-nicotinamide], the Ki worked out at 1.4 nM.

`CCCCS(=O)(=O)NC(=O)c1ccc(OCc2c(-c3ccccc3)noc2C)nc1` [Example 233, Butane-1-sulfonic acid [6-(5-methyl-3-phenyl-isoxazol-4-ylmethoxy)-pyridine-3-carbonyl]-amide]: the Ki stood at 32.2 nM.

Take `Cc1onc(-c2ccccc2)c1COc1ccc(C(=O)NC(C)C(F)(F)F)cn1` (stereo not shown) [Example 234, 6-(5-Methyl-3-phenyl-isoxazol-4-ylmethoxy)-N-(2,2,2-trifluoro-1-methyl-ethyl)-nicotinamide]: the Ki came out at 0.6 nM.

`Cc1onc(-c2ccccc2)c1COc1ccc(C(=O)N[C@@H](C)C(F)(F)F)cn1` [Example 235, 6-(5-Methyl-3-phenyl-isoxazol-4-ylmethoxy)-N—((S)-2,2,2-trifluoro-1-methyl-ethyl)-nicotinamide]: the Ki stood at 1.9 nM.

`Cc1onc(-c2ccccc2)c1COc1ccc(C(=O)N(C)S(=O)(=O)C2CC2)cn1` [Example 236, Cyclopropanesulfonic acid methyl-[6-(5-methyl-3-phenyl-isoxazol-4-ylmethoxy)-pyridine-3-carbonyl]-amide]: the Ki was determined as 36.7 nM.

As to `Cc1onc(-c2ccccc2)c1COc1ccc(C(=O)Nc2cnn(C)c2)cn1` [Example 237, 6-(5-Methyl-3-phenyl-isoxazol-4-ylmethoxy)-N-(1-methyl-1H-pyrazol-4-yl)-nicotinamide], the Ki came out at 1.1 nM.

For `Cc1onc(-c2ccccc2)c1COc1ccc(C(=O)n2ccc(=O)[nH]2)cn1` [Example 238, 1-[6-(5-Methyl-3-phenyl-isoxazol-4-ylmethoxy)-pyridine-3-carbonyl]-1,2-dihydro-pyrazol-3-one], the Ki was found to be 34.9 nM.

For the compound `Cc1onc(-c2ccccc2)c1COc1ccc(C(=O)NC2(C)CC2)cn1` [Example 239, N-(1-Methyl-cyclopropyl)-6-(5-methyl-3-phenyl-isoxazol-4-ylmethoxy)-nicotinamide], the Ki worked out at 3.6 nM.

Consider `Cc1onc(-c2ccccc2)c1COc1ccc(C(=O)N2CCC2)cn1` [Example 240, Azetidin-1-yl-[6-(5-methyl-3-phenyl-isoxazol-4-ylmethoxy)-pyridin-3-yl]-methanone], for which the Ki was determined as 13.9 nM.

As for `COC1CN(C(=O)c2ccc(OCc3c(-c4ccccc4)noc3C)nc2)C1` [Example 241, (3-Methoxy-azetidin-1-yl)-[6-(5-methyl-3-phenyl-isoxazol-4-ylmethoxy)-pyridin-3-yl]-methanone], the Ki came to 16 nM.

Regarding `Cc1onc(-c2ccccc2)c1COc1ccc(C(=O)N2CCSC2)cn1` [Example 242, [6-(5-Methyl-3-phenyl-isoxazol-4-ylmethoxy)-pyridin-3-yl]-thiazolidin-3-yl-methanone], the Ki is 37.3 nM.

Consider `Cc1onc(-c2ccccc2)c1COc1ccc(C(=O)NC2(C#N)CC2)cn1` [Example 243, N-(1-Cyano-cyclopropyl)-6-(5-methyl-3-phenyl-isoxazol-4-ylmethoxy)-nicotinamide], for which the Ki worked out at 2.9 nM.

For the compound `Cc1onc(-c2ccccc2)c1COc1ccc(C(=O)Nc2ccn(C)n2)cn1` [Example 244, 6-(5-Methyl-3-phenyl-isoxazol-4-ylmethoxy)-N-(1-methyl-1H-pyrazol-3-yl)-nicotinamide], the Ki stood at 5.1 nM.

For `Cc1noc(-c2ccc(OCc3c(-c4ccccc4)noc3C)nc2)n1` [Example 245, 5-(3-Methyl-[1,2,4]oxadiazol-5-yl)-2-(5-methyl-3-phenyl-isoxazol-4-ylmethoxy)-pyridine], the Ki worked out at 3.3 nM.

For `Cc1nnc(-c2ccc(OCc3c(-c4ccccc4)noc3C)nc2)[nH]1` [Example 246, 2-(5-Methyl-3-phenyl-isoxazol-4-ylmethoxy)-5-(5-methyl-4H-[1,2,4]triazol-3-yl)-pyridine], the Ki worked out at 1.1 nM.

On to `CSc1ccc(OCc2c(-c3ccccc3)noc2C)nc1` [Example 247, 2-(5-Methyl-3-phenyl-isoxazol-4-ylmethoxy)-5-methylsulfanyl-pyridine], for which the Ki was found to be 17.7 nM.

For `Cc1onc(-c2ccccc2)c1COc1ccc([S+](C)[O-])cn1` (stereo not shown) [Example 248, 5-Methanesulfinyl-2-(5-methyl-3-phenyl-isoxazol-4-ylmethoxy)-pyridine], the Ki came out at 28.1 nM.

`Cc1cccc(-c2noc(C)c2COc2ccc(C(=O)NC3CCOCC3)cn2)c1` [Example 249, 6-(5-Methyl-3-m-tolyl-isoxazol-4-ylmethoxy)-N-(tetrahydro-pyran-4-yl)-nicotinamide]: the Ki was determined as 3.2 nM.

Consider `Cc1cccc(-c2noc(C)c2COc2ccc(C(=O)NC(C)C)cn2)c1` [Example 250, N-Isopropyl-6-(5-methyl-3-m-tolyl-isoxazol-4-ylmethoxy)-nicotinamide], for which the Ki worked out at 3.1 nM.

As for `Cc1ccc(-c2noc(C)c2COc2ccc(C(=O)NC3CCOCC3)cn2)cc1` [Example 251, 6-(5-Methyl-3-p-tolyl-isoxazol-4-ylmethoxy)-N-(tetrahydro-pyran-4-yl)-nicotinamide], the Ki is 0.9 nM.

On to `Cc1ccc(-c2noc(C)c2COc2ccc(C(=O)NC(C)C)cn2)cc1` [Example 252, N-Isopropyl-6-(5-methyl-3-p-tolyl-isoxazol-4-ylmethoxy)-nicotinamide], for which the Ki is 1 nM.

Regarding `Cc1ccc(-c2noc(C)c2COc2ccc(C(=O)NC(C)C)cn2)c(F)c1` [Example 253, 6-[3-(2-Fluoro-4-methyl-phenyl)-5-methyl-isoxazol-4-ylmethoxy]-N-isopropyl-nicotinamide], the Ki was 0.8 nM.

For the compound `Cc1onc(-c2ccc(Cl)cc2)c1COc1ccc(C(=O)NC(C)(C)CO)cn1` [Example 254, 6-[3-(4-Chloro-phenyl)-5-methyl-isoxazol-4-ylmethoxy]-N-(2-hydroxy-1,1-dimethyl-ethyl)-nicotinamide], the Ki was 4.1 nM.

With `Cc1onc(-c2ccc(Cl)cc2)c1COc1ccc(C(=O)Nc2cnn(C)c2)cn1` [Example 255, 6-[3-(4-Chloro-phenyl)-5-methyl-isoxazol-4-ylmethoxy]-N-(1-methyl-1H-pyrazol-4-yl)-nicotinamide], the Ki came to 0.8 nM.

Take `Cc1onc(-c2ccc(Cl)cc2)c1COc1ccc(C(=O)N[C@H](C)CO)cn1` [Example 256, 6-[3-(4-Chloro-phenyl)-5-methyl-isoxazol-4-ylmethoxy]-N—((R)-2-hydroxy-1-methyl-ethyl)-nicotinamide]: the Ki was 0.8 nM.

As for `Cc1onc(-c2ccc(Cl)cc2)c1COc1ccc(C(=O)N[C@@H](C)CO)cn1` [Example 257, 6-[3-(4-Chloro-phenyl)-5-methyl-isoxazol-4-ylmethoxy]-N—((S)-2-hydroxy-1-methyl-ethyl)-nicotinamide], the Ki worked out at 0.5 nM.

Consider `Cc1onc(-c2ccc(Cl)cc2)c1COc1ccc(C(=O)N[C@@H](C)C(F)(F)F)cn1` [Example 258, 6-[3-(4-Chloro-phenyl)-5-methyl-isoxazol-4-ylmethoxy]-N—((S)-2,2,2-trifluoro-1-methyl-ethyl)-nicotinamide], for which the Ki came to 1.3 nM.

As for `Cc1onc(-c2cccc(F)c2F)c1COc1ccc(C(=O)NC(C)C)cn1` [Example 261, 6-[3-(2,3-Difluoro-phenyl)-5-methyl-isoxazol-4-ylmethoxy]-N-isopropyl-nicotinamide], the Ki was found to be 26.5 nM.

Regarding `Cc1onc(-c2cccc(F)c2F)c1COc1ccc(C(=O)NC2CCOCC2)cn1` [Example 262, 6-[3-(2,3-Difluoro-phenyl)-5-methyl-isoxazol-4-ylmethoxy]-N-(tetrahydro-pyran-4-yl)-nicotinamide], the Ki came to 5.2 nM.

As to `Cc1onc(-c2ccc(F)cc2F)c1COc1ccc(C(=O)NC(C)C)cn1` [Example 263, 6-[3-(2,4-Difluoro-phenyl)-5-methyl-isoxazol-4-ylmethoxy]-N-isopropyl-nicotinamide], the Ki was 2.4 nM.

Regarding `Cc1onc(-c2ccc(F)cc2F)c1COc1ccc(C(=O)NC2CCOCC2)cn1` [Example 264, 6-[3-(2,4-Difluoro-phenyl)-5-methyl-isoxazol-4-ylmethoxy]-N-(tetrahydro-pyran-4-yl)-nicotinamide], the Ki was 2.3 nM.

Regarding `Cc1onc(-c2cc(F)ccc2F)c1COc1ccc(C(=O)NC(C)C)cn1` [Example 265, 6-[3-(2,5-Difluoro-phenyl)-5-methyl-isoxazol-4-ylmethoxy]-N-isopropyl-nicotinamide], the Ki was found to be 27.3 nM.

Consider `Cc1onc(-c2cc(F)ccc2F)c1COc1ccc(C(=O)NC2CCOCC2)cn1` [Example 266, 6-[3-(2,5-Difluoro-phenyl)-5-methyl-isoxazol-4-ylmethoxy]-N-(tetrahydro-pyran-4-yl)-nicotinamide], for which the Ki worked out at 4.3 nM.

Take `Cc1onc(-c2ccc(F)c(F)c2)c1COc1ccc(C(=O)NC(C)(C)CO)cn1` [Example 267, 6-[3-(3,4-Difluoro-phenyl)-5-methyl-isoxazol-4-ylmethoxy]-N-(2-hydroxy-1,1-dimethyl-ethyl)-nicotinamide]: the Ki was found to be 9.3 nM.
